From US20100204470A1, “METHOD FOR SALT PREPARATION” (Sandoz AG, priority 2006, published 2010)
Counter-ions that a name gives are not always drawn. Blank lines part the entries; values can stand above or below the compound they belong to.

Key:
[1] = Storage in a dessicator at a humidity level of 33% (hygroscopicity, conversion to hydrous form); format: physicochemical
Excerpt: The present invention also relates to a novel anhydrous hydrochloride salt of Moxifloxacin, herein called form IV. […] More particular, the invention relates to form IV characterized by an X-ray powder diffraction pattern with peaks at about 10.0, 13.2, 15.3, 17.2 and 24.4 degrees 2 theta. The invention also relates to form IV characterized by infrared absorption bands at about 2704, 1720, 1434, 1312 and 1273 cm^−1.
The new anhydrous form IV may preferably be prepared by desolvating Moxifloxacin hydrochloride methylene dichloride solvate by drying in vacuum at about 100° C. […] The invention also relates to pharmaceutical compositions comprising form IV.

[2] = General solubility / stability of the crystalline salt; format: physicochemical; details: qualitative statement
[3] = anhydrous vs monohydrate hydrochloride; disclosed in WO 95/07902; cited from earlier work
[4] = compared with monohydrate salt form; disclosed in WO 95/07902; cited from earlier work
[5] = Stability of solvate under air drying conditions (desolvation)
[6] = dessicator, humidity level 33%, 48 hours

Compound: COc1c(C)c2c(c(O)c1C/C=C(\C)CCC(=O)OCCN1CCOCC1)C(=O)OC2 [mycophenolate mofetil hydrochloride]
increase in solubility over the monohydrate salt form [3]: two-fold | stability characteristics [4]: possessing the stability characteristics of the monohydrate salt form

Compound: Raloxifene Hydrochloride THF hemisolvate
stability / desolvation under air drying conditions [5]: stable and does not desolvate

The remaining lines, values ahead:

moisture content after humidity storage ([1]; after 48 hours at humidity level 33%): 0.6% | hygroscopicity relative to other anhydrous forms ([1]; compared with anhydrous form II (US 5849 752, Bayer) and anhydrous form B (WO 2005/054240, Chemi Spa)): lower hygroscopicity | XRPD pattern after humidity storage [1, 6]: no alteration | conversion to a hydrous form [1, 6]: does not convert to a hydrous form | moisture content before humidity storage ([1]; initial value): 0.5%
Compound: COc1c(N2C[C@@H]3CCCN[C@@H]3C2)c(F)cc2c(=O)c(C(=O)O)cn(C3CC3)c12.Cl [Moxifloxacine Hydrochloride Anhydrous Form IV]

solubility and/or stability [2]: good solubility and/or stability
Compound: COc1c(N2C[C@@H]3CCCN[C@@H]3C2)c(F)cc2c(=O)c(C(=O)O)cn(C3CC3)c12 [Moxifloxacine hydrochloride]

stability / desolvation under air drying conditions [5]: stable and does not desolvate | hygroscopicity (water uptake) ([1]; 1 day at 33% relative humidity): not hygroscopic
Compound: Moxifloxacine Hydrochloride Methylene Dichloride Solvate
